Experimental data: patent publication US20060252807A1, “Novel ortho-terphenyl inhibitors of p38 kinase and methods of treating inflammatory disorders” (Kalypsys, Inc., priority 2005, published 2006)

Target: T1, active p38 alpha enzyme (Upstate Biotechnology) (Homo sapiens, UniProt Q16539)
T1 construct: purchased Upstate Biotechnology
Assay: p38α biochemical assay (ATP turnover, luminescent detection, Cambrex PKlight)
Settings: p38α biochemical assay, Table 1 Biological Activity
Outline: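 p38α + MapkapK2 (whole protein substrate) + 1.4 uM ATP final; Tris/MOPS buffer with MgCl2, CaCl2, EGTA, EDTA, glycerol, β-ME, BSA; 2 h at 30C; luminescent detection of remaining ATP.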

T1 sequence (Q16539 whole entry): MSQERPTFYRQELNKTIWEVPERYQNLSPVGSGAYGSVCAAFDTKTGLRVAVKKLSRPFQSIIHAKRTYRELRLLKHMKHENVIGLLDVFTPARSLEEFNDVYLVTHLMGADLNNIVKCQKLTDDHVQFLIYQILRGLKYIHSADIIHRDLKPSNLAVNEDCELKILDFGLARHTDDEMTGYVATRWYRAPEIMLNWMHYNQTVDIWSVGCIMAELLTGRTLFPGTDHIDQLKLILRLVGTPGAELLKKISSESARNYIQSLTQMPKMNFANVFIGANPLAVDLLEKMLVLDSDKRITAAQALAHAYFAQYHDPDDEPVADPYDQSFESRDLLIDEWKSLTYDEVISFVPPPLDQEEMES

| SMILES | IC50 [nM] |
| --- | --- |
| COc1ccccc1CC(=O)NCc1nc(-c2ccc(F)cc2)c(-c2nc(C(=O)NC(C)C)cs2)o1 [Example 182] | ≤ 1000 |
| CC(C)NC(=O)c1csc(-c2oc(CNC(=O)C(C)c3ccc(O)cc3)nc2-c2ccc(F)cc2)n1 (centres unmarked) [Example 183] | ≤ 1000 |
| CC(C)NC(=O)c1csc(-c2oc(CNC(=O)c3ccccc3[N+](=O)[O-])nc2-c2ccc(F)cc2)n1 [Example 184] | ≤ 1000 |
| CC(C)NC(=O)c1csc(-c2oc(CNC(=O)c3cccc([N+](=O)[O-])c3)nc2-c2ccc(F)cc2)n1 [Example 185] | > 1000 |
| COc1cccc(O)c1C(=O)NCc1nc(-c2ccc(F)cc2)c(-c2nc(C(=O)NC(C)C)cs2)o1 [Example 186] | > 1000 |
| COc1ccc(O)c(C(=O)NCc2nc(-c3ccc(F)cc3)c(-c3nc(C(=O)NC(C)C)cs3)o2)c1 [Example 187] | > 1000 |
| COc1ccc(C(=O)NCc2nc(-c3ccc(F)cc3)c(-c3nc(C(=O)NC(C)C)cs3)o2)c(O)c1 [Example 188] | > 1000 |
| COc1ccc(C(=O)NCc2nc(-c3ccc(F)cc3)c(-c3nc(C(=O)NC(C)C)cs3)o2)cc1O [Example 189] | > 1000 |
| CC(C)NC(=O)c1csc(-c2oc(CNC(=O)c3cc(O)c(O)c(O)c3)nc2-c2ccc(F)cc2)n1 [Example 190] | ≤ 1000 |
| CC(C)NC(=O)c1csc(-c2oc(CNC(=O)Cc3ccc(O)c(F)c3)nc2-c2ccc(F)cc2)n1 [Example 191] | ≤ 1000 |
| Cc1cc(C(=O)NCc2nc(-c3ccc(F)cc3)c(-c3nc(C(=O)NC(C)C)cs3)o2)cc(Cl)n1 [Example 192] | > 1000 |
| CC(C)NC(=O)c1csc(-c2oc(CNC(=O)Cc3c(F)cccc3F)nc2-c2ccc(F)cc2)n1 [Example 193] | ≤ 1000 |
| CC(C)NC(=O)c1csc(-c2oc(CNC(=O)c3cccc4ccccc34)nc2-c2ccc(F)cc2)n1 [Example 194] | ≤ 1000 |
| CC(C)NC(=O)c1csc(-c2oc(CNC(=O)c3ccc(Cl)cc3O)nc2-c2ccc(F)cc2)n1 [Example 195] | > 1000 |
| CC(C)NC(=O)c1csc(-c2oc(CNC(=O)c3cc(Cl)ccc3O)nc2-c2ccc(F)cc2)n1 [Example 196] | > 1000 |
| CC(C)NC(=O)c1csc(-c2oc(CNC(=O)c3ccc4ncccc4c3)nc2-c2ccc(F)cc2)n1 [Example 197] | ≤ 1000 |
| CC(C)NC(=O)c1csc(-c2oc(CNC(=O)c3cnc(O)c(Cl)c3)nc2-c2ccc(F)cc2)n1 [Example 198] | ≤ 1000 |
| CC(C)NC(=O)c1csc(-c2oc(CNC(=O)c3ccc(F)cc3Cl)nc2-c2ccc(F)cc2)n1 [Example 199] | ≤ 1000 |
| CC(C)NC(=O)c1csc(-c2oc(CNC(=O)c3c(F)cccc3Cl)nc2-c2ccc(F)cc2)n1 [Example 200] | ≤ 1000 |
| CC(C)NC(=O)c1csc(-c2oc(CNC(=O)CNC(=O)OC(C)(C)C)nc2-c2ccc(F)cc2)n1 [Example 201] | > 1000 |

| SMILES | IC50 [nM] |
| --- | --- |
| Cc1c(C(=O)NCc2nc(-c3ccc(F)cc3)c(-c3nc(C(=O)NC(C)C)cs3)o2)oc2ccccc12 [Example 202] | > 1000 |
| CC(C)NC(=O)c1csc(-c2oc(CNC(=O)CC3Cc4ccccc4C3)nc2-c2ccc(F)cc2)n1 [Example 203] | > 1000 |
| CC(C)NC(=O)c1csc(-c2oc(CNC(=O)C3CCc4ccccc4C3)nc2-c2ccc(F)cc2)n1 (centres unmarked) [Example 204] | > 1000 |
| COc1ccccc1/C=C/C(=O)NCc1nc(-c2ccc(F)cc2)c(-c2nc(C(=O)NC(C)C)cs2)o1 [Example 205] | > 1000 |
| CC(C)NC(=O)c1csc(-c2oc(CNC(=O)c3csc4ccccc34)nc2-c2ccc(F)cc2)n1 [Example 206] | > 1000 |
| CC(C)NC(=O)c1csc(-c2oc(CNC(=O)c3cc4ccccc4s3)nc2-c2ccc(F)cc2)n1 [Example 207] | ≤ 1000 |
| CCCCc1ccc(C(=O)NCc2nc(-c3ccc(F)cc3)c(-c3nc(C(=O)NC(C)C)cs3)o2)cc1 [Example 208] | > 1000 |
| CC(C)NC(=O)c1csc(-c2oc(CNC(=O)c3ccc(C(C)(C)C)cc3)nc2-c2ccc(F)cc2)n1 [Example 209] | > 1000 |
| CC(C)NC(=O)c1csc(-c2oc(CNC(=O)c3ccc(N(C)C=O)cc3)nc2-c2ccc(F)cc2)n1 [Example 210] | > 1000 |
| CC(=O)Nc1cccc(C(=O)NCc2nc(-c3ccc(F)cc3)c(-c3nc(C(=O)NC(C)C)cs3)o2)c1 [Example 211] | > 1000 |
| CC(C)NC(=O)c1csc(-c2oc(CNC(=O)COc3ccccc3C=O)nc2-c2ccc(F)cc2)n1 [Example 212] | > 1000 |
| CC(=O)Oc1ccc(C(=O)NCc2nc(-c3ccc(F)cc3)c(-c3nc(C(=O)NC(C)C)cs3)o2)cc1 [Example 213] | > 1000 |
| COC(=O)c1ccc(C(=O)NCc2nc(-c3ccc(F)cc3)c(-c3nc(C(=O)NC(C)C)cs3)o2)cc1 [Example 214] | > 1000 |
| CC(=O)Oc1cccc(C(=O)NCc2nc(-c3ccc(F)cc3)c(-c3nc(C(=O)NC(C)C)cs3)o2)c1 [Example 215] | > 1000 |
| CC(=O)Oc1ccccc1C(=O)NCc1nc(-c2ccc(F)cc2)c(-c2nc(C(=O)NC(C)C)cs2)o1 [Example 216] | > 1000 |
| CC(C)NC(=O)c1csc(-c2oc(CNC(=O)Cc3ccc4c(c3)OCO4)nc2-c2ccc(F)cc2)n1 [Example 217] | > 1000 |
| CCCOc1ccc(C(=O)NCc2nc(-c3ccc(F)cc3)c(-c3nc(C(=O)NC(C)C)cs3)o2)cc1 [Example 218] | > 1000 |
| CC(C)NC(=O)c1csc(-c2oc(CNC(=O)c3ccc(OC(C)C)cc3)nc2-c2ccc(F)cc2)n1 [Example 219] | > 1000 |
| Cc1cccc([N+](=O)[O-])c1C(=O)NCc1nc(-c2ccc(F)cc2)c(-c2nc(C(=O)NC(C)C)cs2)o1 [Example 220] | ≤ 1000 |
| Cc1cccc(C(=O)NCc2nc(-c3ccc(F)cc3)c(-c3nc(C(=O)NC(C)C)cs3)o2)c1[N+](=O)[O-] [Example 221] | ≤ 1000 |

The remaining lines, values ahead:

| IC50 [nM] | SMILES |
| --- | --- |
| ≤ 1000 | Cc1ccc([N+](=O)[O-])c(C(=O)NCc2nc(-c3ccc(F)cc3)c(-c3nc(C(=O)NC(C)C)cs3)o2)c1 [Example 222] |
| > 1000 | Cc1c(C(=O)NCc2nc(-c3ccc(F)cc3)c(-c3nc(C(=O)NC(C)C)cs3)o2)cccc1[N+](=O)[O-] [Example 223] |
| > 1000 | COc1ccc(OC)c(C(=O)NCc2nc(-c3ccc(F)cc3)c(-c3nc(C(=O)NC(C)C)cs3)o2)c1 [Example 224] |
| > 1000 | COc1ccc(C(=O)NCc2nc(-c3ccc(F)cc3)c(-c3nc(C(=O)NC(C)C)cs3)o2)c(OC)c1 [Example 225] |
| ≤ 1000 | COc1cccc(OC)c1C(=O)NCc1nc(-c2ccc(F)cc2)c(-c2nc(C(=O)NC(C)C)cs2)o1 [Example 226] |
| > 1000 | COc1cc(OC)cc(C(=O)NCc2nc(-c3ccc(F)cc3)c(-c3nc(C(=O)NC(C)C)cs3)o2)c1 [Example 227] |
| > 1000 | COc1cccc(C(=O)NCc2nc(-c3ccc(F)cc3)c(-c3nc(C(=O)NC(C)C)cs3)o2)c1OC [Example 228] |
| > 1000 | Cc1ccc(SCC(=O)NCc2nc(-c3ccc(F)cc3)c(-c3nc(C(=O)NC(C)C)cs3)o2)cc1 [Example 229] |
| ≤ 1000 | CC(C)NC(=O)c1csc(-c2oc(CNC(=O)/C=C/c3ccc(Cl)cc3)nc2-c2ccc(F)cc2)n1 [Example 230] |
| > 1000 | CC(C)NC(=O)c1csc(-c2oc(CNC(=O)/C=C/c3ccccc3Cl)nc2-c2ccc(F)cc2)n1 [Example 231] |
| > 1000 | CC(C)NC(=O)c1csc(-c2oc(CNC(=O)c3ccc([N+](=O)[O-])c(O)c3)nc2-c2ccc(F)cc2)n1 [Example 232] |
| ≤ 1000 | CC(C)NC(=O)c1csc(-c2oc(CNC(=O)c3cc(O)ccc3[N+](=O)[O-])nc2-c2ccc(F)cc2)n1 [Example 233] |
| ≤ 1000 | CC(C)NC(=O)c1csc(-c2oc(CNC(=O)c3cc([N+](=O)[O-])ccc3O)nc2-c2ccc(F)cc2)n1 [Example 234] |
| > 1000 | CC(C)NC(=O)c1csc(-c2oc(CNC(=O)c3cc([N+](=O)[O-])ccc3F)nc2-c2ccc(F)cc2)n1 [Example 235] |
| ≤ 1000 | CC(C)NC(=O)c1csc(-c2oc(CNC(=O)c3cc(F)ccc3[N+](=O)[O-])nc2-c2ccc(F)cc2)n1 [Example 236] |
| ≤ 1000 | CC(C)NC(=O)c1csc(-c2oc(CNC(=O)c3ccc(F)c([N+](=O)[O-])c3)nc2-c2ccc(F)cc2)n1 [Example 237] |
| > 1000 | COc1ccc(Cl)cc1C(=O)NCc1nc(-c2ccc(F)cc2)c(-c2nc(C(=O)NC(C)C)cs2)o1 [Example 238] |
| > 1000 | COc1cc(Cl)ccc1C(=O)NCc1nc(-c2ccc(F)cc2)c(-c2nc(C(=O)NC(C)C)cs2)o1 [Example 239] |
| ≤ 1000 | CC(C)NC(=O)c1csc(-c2oc(CNC(=O)Cc3ccc(O)c(Cl)c3)nc2-c2ccc(F)cc2)n1 [Example 240] |
| > 1000 | COc1cc(C(=O)NCc2nc(-c3ccc(F)cc3)c(-c3nc(C(=O)NC(C)C)cs3)o2)cc(Cl)n1 [Example 241] |
| ≤ 1000 | CC(C)NC(=O)c1csc(-c2oc(CNC(=O)c3ccc4cc(O)ccc4c3)nc2-c2ccc(F)cc2)n1 [Example 242] |
| > 1000 | CC(C)NC(=O)c1csc(-c2oc(CNC(=O)c3c(O)ccc4ccccc34)nc2-c2ccc(F)cc2)n1 [Example 243] |
| > 1000 | CC(C)NC(=O)c1csc(-c2oc(CNC(=O)c3cc4ccccc4cc3O)nc2-c2ccc(F)cc2)n1 [Example 244] |
| > 1000 | CC(C)NC(=O)c1csc(-c2oc(CNC(=O)c3ccc4ccccc4c3O)nc2-c2ccc(F)cc2)n1 [Example 245] |
| ≤ 1000 | CC(C)NC(=O)c1csc(-c2oc(CNC(=O)c3ccc4cccc(O)c4n3)nc2-c2ccc(F)cc2)n1 [Example 246] |
| > 1000 | CC(C)NC(=O)c1csc(-c2oc(CNC(=O)C(C)NC(=O)OC(C)(C)C)nc2-c2ccc(F)cc2)n1 (centres unmarked) [Example 247] |
| > 1000 | CC(C)NC(=O)c1csc(-c2oc(CNC(=O)C(C)NC(=O)OC(C)(C)C)nc2-c2ccc(F)cc2)n1 (centres unmarked) [Example 248] |
| ≤ 1000 | CC(C)NC(=O)c1csc(-c2oc(CNC(=O)c3ccccc3C(F)(F)F)nc2-c2ccc(F)cc2)n1 [Example 249] |
